Laboratory results taken from publication PMC3581553, “New Approaches of PARP-1 Inhibitors in Human Lung Cancer Cells and Cancer Stem-Like Cells by Some Selected Anthraquinone-Derived Small Molecules” (PLoS ONE, 2013).
Where two headings read alike, the source gives them in different places.

Experiments:
A549/ATCC = experiment: NCI-60 drug screen (SRB), NSCLC line A549/ATCC; assay type: cell-based, human
Experimental: (§1) As a primary screening, seven selected compounds were submitted to the National Cancer Institute (NCI) cell lines screen for evaluation of their anticancer activity. From the data analysis, it follows that approximately 95% of the actives from the 60 cell lines screen can be identified. The detailed methods used for the 60 cell lines panel have been described elsewhere [54]–[59]. Briefly, cellular protein levels were determined after 48 hours of drug exposure by SRB colorimetry. Through the use of a time zero cell control, the cell growth can be determined for each cell line thus allowing calculations of GI50, TGI, and LC50. Comparison to plates not exposed to drug permits determination of concentration and times of exposure conferring GI50, TGI, and LC50. […] By these criteria, seven compounds reported from our compounds bank were all active and passed on for evaluation in the full panel of 60 human tumor cell lines. The panel is organized into nine subpanels representing diverse histology: leukemia, melanoma, and cancers of the lung, colon, kidney, ovary, breast, prostate, and central nervous system.

NCI-H322M = experiment: NCI-60 drug screen (SRB), NSCLC line NCI-H322M; assay type: cell-based, human
Experimental: as §1

HOP-62 = experiment: NCI-60 drug screen (SRB), NSCLC line HOP-62; assay type: cell-based, human
Experimental: as §1

NCI-H226 = experiment: NCI-60 drug screen (SRB), NSCLC line NCI-H226; assay type: cell-based, human
Experimental: as §1

EKVX = experiment: NCI-60 drug screen (SRB), NSCLC line EKVX; assay type: cell-based, human
Experimental: as §1

[1] = tested on: Oct-4- and Nanog-overexpressed A549 clone (A3); experiment: MTT cytotoxicity assay, A3 cells; assay type: cell-based; details: Homo sapiens, 48 h of drug exposure
Experimental: (§2) Non-small cell lung cancer cells A549 and Oct-4- and Nanog-overexpressed A549 clone (clone #3; A3), presented the properties of cancer stem-like cells, as well as epithelial-mesenchymal transdifferentiation, according to our previous study. They were grown in the same conditions as RPMI 1640 media supplemented with 10% fetal bovine serum (FBS), 100 units/mL penicillin, […] streptomycin, 1 mM sodium pyruvate, 2 mM l-glutamine and 1% non-essential amino acid (NEAA) in a humidified atmosphere with 5% CO2 at 37°C. Normal fibroblast cells HEL299 from American Type Culture Collection (ATCC) were grown in MEM media supplemented with 10% FBS, 100 units/mL penicillin, […] streptomycin, 1 mM sodium pyruvate, 2 mM l-glutamine and 1% NEAA, in a humidified atmosphere with 5% CO2 at 37°C.
(§3) The tetrazolium reagent (MTT; 3-(4,5-dimethylthiazol-2-yl)-2,5-diphenyl-tetrazolium bromide, USB) was designed to yield a colored formazan upon metabolic reduction by viable cells, [61]. Approximately 5×10^4 cells were plated onto each well of a 24-well plate and incubated in 5% CO2 at 37°C for 24 hours. To assess the in vitro cytotoxicity, each compound was dissolved in DMSO and prepared immediately before the experiments and then was diluted into the complete medium before being added to cell cultures. Test compounds were then added to the culture medium in various designated concentrations. After 48 hours, an amount of 100 µl of MTT was added to each well, and the samples were incubated at 37°C for 2 h. 100 µl DMSO was added to each well. The absorbency at 560 nm and reference absorbency at 670 nm were measured using an ELISA reader.

NCI-H23 = experiment: NCI-60 drug screen (SRB), NSCLC line NCI-H23; assay type: cell-based, human
Experimental: as §1

A549 cells = experiment: MTT cytotoxicity assay, A549 cells; assay type: cell-based; details: Homo sapiens, 48 h of drug exposure
Experimental: as §2, §3

NCI-H522 = experiment: NCI-60 drug screen (SRB), NSCLC line NCI-H522; assay type: cell-based, human
Experimental: as §1

NCI-H460 = experiment: NCI-60 drug screen (SRB), NSCLC line NCI-H460; assay type: cell-based, human
Experimental: as §1

PARP-1 = target: T1, PARP-1 (Homo sapiens, UniProt P09874); experiment: PARP inhibitory assay (histone-coated plate, colorimetric); assay type: biochemical
T1 construct: purchased
T1 sequence (P09874 whole entry): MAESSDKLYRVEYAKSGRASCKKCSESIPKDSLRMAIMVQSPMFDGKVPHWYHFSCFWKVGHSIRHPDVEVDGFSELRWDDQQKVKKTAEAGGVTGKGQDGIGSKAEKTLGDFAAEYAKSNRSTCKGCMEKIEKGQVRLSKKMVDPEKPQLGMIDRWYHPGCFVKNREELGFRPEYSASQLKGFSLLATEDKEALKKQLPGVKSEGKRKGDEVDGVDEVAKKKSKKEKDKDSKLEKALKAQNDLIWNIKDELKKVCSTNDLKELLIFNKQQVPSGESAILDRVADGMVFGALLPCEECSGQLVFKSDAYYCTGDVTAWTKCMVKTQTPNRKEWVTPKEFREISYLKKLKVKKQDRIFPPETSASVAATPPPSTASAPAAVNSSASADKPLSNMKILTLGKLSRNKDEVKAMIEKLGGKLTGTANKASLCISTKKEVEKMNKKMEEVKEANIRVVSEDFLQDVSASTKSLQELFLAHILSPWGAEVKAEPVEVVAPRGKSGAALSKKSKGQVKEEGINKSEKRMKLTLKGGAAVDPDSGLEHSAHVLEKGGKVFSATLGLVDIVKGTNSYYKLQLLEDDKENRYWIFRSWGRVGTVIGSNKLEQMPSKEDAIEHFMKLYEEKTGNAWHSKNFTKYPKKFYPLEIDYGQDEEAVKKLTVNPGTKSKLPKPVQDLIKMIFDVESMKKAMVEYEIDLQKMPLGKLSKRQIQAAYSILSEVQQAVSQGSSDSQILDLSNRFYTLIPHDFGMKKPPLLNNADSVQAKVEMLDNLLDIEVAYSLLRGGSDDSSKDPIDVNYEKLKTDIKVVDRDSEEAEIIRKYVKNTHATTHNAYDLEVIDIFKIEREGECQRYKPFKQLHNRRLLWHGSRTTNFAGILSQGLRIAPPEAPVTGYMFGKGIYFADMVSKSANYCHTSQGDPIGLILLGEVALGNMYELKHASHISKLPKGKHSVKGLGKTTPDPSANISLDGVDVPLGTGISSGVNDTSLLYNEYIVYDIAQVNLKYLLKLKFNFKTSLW
Experimental: We used histone-coated 96-well plate treated with seven putative PARP-1 inhibitors or well-known PARP-1 inhibitors (3-AB), and then added PARP enzyme to each well. PARP enzyme catalyzes the NAD-dependent addition of poly (ADP-ribose) to histone, and diluted Strp-HRP could bind to PARylation histone. TACS-Sapphire™ yielded blue under the HRP existence. In order to systematically evaluate the potential anticancer activity, the compounds were tested for their cytotoxicity in vitro against 60 human cancer lines in the NCI anticancer drug screen as well as for dose response curves and telomerase activity. Cell growth was analyzed by the MTT assay, with differences between dose-response curves analyzed non-parametrically. Telomerase activity was detected by a modified version of the PCR-based assay and TRAP assay. […] However, PARP inhibitory effects had no difference at 1 and 10 µM. As described above, NSC746364, NSC746366 and NSC749232 show dose-dependency only at low concentrations. […] NSC747854 had dose-dependent PARP inhibitory manners at three different concentrations, and reached the maximum inhibitory effect of 86% at 10 µM (Table 4). […] In this investigation, we continued to focus our attention on the role of NSC747854 and to understand the basis of pharmacophore selectivity. Of particular note is the significant difference with these selected compounds, compared with that of 3-AB and PJ-34. […] An electron-rich aromatic ring system, including a carboxamide group, should have at least a hydrogen atom on the amide nitrogen. The amidinium moiety is known to contribute to the stabilization of DNA recognition element through electrostatic and hydrogen bonding interactions. Therefore, hydrogen bonds are frequently used as recognition elements due to their directionality and also due to being attractive factors to the biological activity (Figure 1). Many classes of drugs have substantial curvature, high DNA affinity, binding to the minor-groove or major-groove, interference with DNA-associated enzymes (e.g. telomerase), and Poly (ADP-ribose) polymerase, PARP. […] This approach greatly expands the utility of the substituents and related pharmacophore for the construction of drugs in general. Therefore, it is desirable to design PARP inhibitors in accordance with various anticancer parameters. It was first reported that anthraquinone analogues are potent human PARP inhibitors.
Strip wells were removed from the wrapper and 50 µl of 1X PARP Buffer was added to each well to rehydrate the histones. They were incubated at room temperature for 30 minutes. The 1X PARP buffer was removed from the wells by tapping the strip wells on paper towels. The serial dilutions of inhibitor of interest were added to appropriate wells. The diluted PARP enzyme (0.5 unit/well) was then added to the wells containing inhibitor. They were incubated for 10 minutes at room temperature. The PARP Enzyme-High Specific Activity (PARP-HAS) standard was serially diluted in cold micro-tubes with 1X PARP buffer such that the total activity was 1 unit/25 µl, 0.5 units/25 µl, 0.25 units/25 µl, 0.1 units/25 µl, 0.05 units/25 µl, 0.025 units/25 µl, and 0.01 units/25 µl, respectively. The 25 µl of each standard was added to triplicate wells. The 25 µl of 1X PARP cocktail were distributed into each well by using a multichannel pipettor. The final reaction volume is 50 µl. They were incubated along with the strip wells at room temperature for 60 minutes. The strip wells were washed 2 times with 1X PBS +0.1% Triton X-100 (200 µl/well) followed by 2 washes with 1X PBS. All the liquid was removed following each wash by tapping strip wells onto paper towels. The 50 µl diluted Strep-HRP were added per well. They were incubated at room temperature for 60 minutes. The strip wells were washed 2 times with 1X PBS +0.1% Triton X-100 (200 µl/well) followed by 2 washes with 1X PBS. All the liquid was removed following each wash by tapping strip wells onto paper towels. […]

HEL299 cells = experiment: MTT cytotoxicity assay, HEL299 normal fibroblasts; assay type: cell-based; details: Homo sapiens, HEL 299, 48 h of drug exposure
Experimental: as §2, §3

[2] = Homo sapiens, 48 hours drug exposure, SRB
[3] = Homo sapiens, 48 hours drug exposure, SRB, read-out: GI50
[4] = Homo sapiens, NCI in vitro 60-cell lines Drug Screen, read-out: -Log GI50 (converted)
[5] = Homo sapiens, 48 hours drug exposure, SRB, read-out: LC50 (the source's name)

For `O=C1c2ccccc2C(=O)c2c1ccc1nc(SCCN3CCCC3)[nH]c21` [NSC747515], the TGI (A549/ATCC; 48 hours drug exposure, SRB) was 15.0 µM, the LC50 (concentration killing 50% of cells) (A549/ATCC; [2]) was 41.8 µM and the GI50 (A549/ATCC; [3]) was 3.8 µM. It also gave a GI50 (A549/ATCC; [4]) of 3.8 µM, a TGI (NCI-H322M; 48 hours drug exposure, SRB) of 21.4 µM and an LC50 (NCI-H322M; [2]) of 47.3 µM. The GI50 (NCI-H322M; [3]) was 8.21 µM, the GI50 (NCI-H322M; [4]) was 8.13 µM and the TGI (HOP-62; 48 hours drug exposure, SRB) was 33.2 µM. For the same molecule, the GI50 (HOP-62; [3]) was 18 µM, the CC50 (HOP-62; [5]) was 61.2 µM and the GI50 (HOP-62; [4]) was 18.2 µM. For the same molecule, the TGI (NCI-H226; 48 hours drug exposure, SRB) was 36.6 µM, the GI50 (NCI-H226; [3]) was 19.3 µM and the CC50 (NCI-H226; [5]) was 69.7 µM. The GI50 (NCI-H226; [4]) was 19.5 µM, the TGI (EKVX; 48 hours drug exposure, SRB) was 26.5 µM and the LC50 (EKVX; [2]) was 62.4 µM. For the same molecule, the GI50 (EKVX; [3]) was 11.2 µM, the GI50 (EKVX; [4]) was 11.2 µM and the IC50 [1] was 7.05 µM. It also gave a TGI (NCI-H23; 48 hours drug exposure, SRB) of 25.7 µM, a GI50 (NCI-H23; [3]) of 11.6 µM and a CC50 (NCI-H23; [5]) of 56.9 µM. It also gave a GI50 (NCI-H23; [4]) of 11.5 µM, an IC50 (A549 cells) of 11.8 µM and a TGI (NCI-H522; 48 hours drug exposure, SRB) of 32.5 µM. It also gave a GI50 (NCI-H522; [3]) of 15.9 µM, a CC50 (NCI-H522; [5]) of 66.2 µM and a GI50 (NCI-H522; [4]) of 15.8 µM. The TGI (NCI-H460; 48 hours drug exposure, SRB) was 4.77 µM, the LC50 (concentration killing 50% of cells) (NCI-H460; [2]) was 29.3 µM and the GI50 (NCI-H460; [3]) was 1.68 µM. The GI50 (NCI-H460; [4]) was 1.7 µM, the inhibition at 0.1 µM (PARP-1) was 20% and the inhibition at 1 µM (PARP-1) was 22%. It also gave an inhibition at 10 µM (PARP-1) of 24% and an IC50 (HEL299 cells) of 25.9 µM.

`NC(=O)c1cccc(N)c1` [3-AB, 3-Aminobenzamide, reference compound] was tested, and the IC50 [1] was 10.8 µM, the IC50 (A549 cells) was 13.1 µM and the inhibition at 0.1 µM (PARP-1) was 4%. It also gave an inhibition at 1 µM (PARP-1) of 10%, an inhibition at 10 µM (PARP-1) of 18% and an IC50 (HEL299 cells) of 5.98 µM.

Molecule `CN(C)CC(=O)Nc1ccc2[nH]c(=O)c3ccccc3c2c1` [PJ-34, reference compound] has an IC50 [1] of 9.44 µM, an IC50 (A549 cells) of 31.7 µM and an IC50 (HEL299 cells) of 14.7 µM.
